Results from patent US8129398B2 (priority 2008, dated 2012).

Legend:
HIV-integrase = target: T1, HIV-integrase (Human immunodeficiency virus type 1 group M subtype B, UniProt P12497); experiment: HIV-Integrase Inhibition Activity (SPA bead integration assay with P33 labeled target DNA); type: biochemical; settings: for IC50: recombinant integrase, class symbols, read-out: in vitro activity; for Ki: representative compounds
T1 construct: Recombinant integrase (0.26 ng) was incubated with the beads
In short: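 Strand integration read as bead-proximity CPM after P33 target DNA (0.1 fmol) and inhibitor were added to washed integrase–substrate DNA complexes on SPA beads. Enzyme bound 90 min at 37° C; EDTA (10 mM final) terminated reaction; IC50 graded A/B/C.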

[1] = system: recombinant NL-Rluc virus; experiment: Inhibition of HIV replication (recombinant NL-Rluc virus, Renilla luciferase reporter); type: cell-based; settings: Human immunodeficiency virus 1

Compound: Cc1cc(CNC(=O)c2nc3n(c(=O)c2O)CC2CCC3(NS(=O)(=O)CC3CC3)CC2)ccc1F [Example 306, 7,10-Ethanopyrimido[1,2-a]azepine-2-carboxamide, 10-[[(cyclopropylmethyl)sulfonyl]amino]-N-[(4-fluoro-3-methylphenyl)methyl]-4,6,7,8,9,10-hexahydro-3-hydroxy-4-oxo-]
- IC50 (HIV-integrase): > 100 nM
- Ki (HIV-integrase): 860 nM
- EC50 [1]: 385 nM

Compound: O=C(NC12CCC(CC1)Cn1c2nc(C(=O)NCc2ccc(F)cc2)c(O)c1=O)c1cccnc1 [Example 33, N-(4-Fluorobenzyl)-3-hydroxy-4-oxo-10-((3-pyridinylcarbonyl)amino)-4,6,7,8,9,10-hexahydro-7,10-ethanopyrimido[1,2-a]azepine-2-carboxamide]
- IC50 (HIV-integrase): < 10 nM
- Ki (HIV-integrase): 1 nM
- EC50 [1]: 2 nM

Compound: Cc1cc(CNC(=O)c2nc3n(c(=O)c2O)CC2CCC3(NC(=O)c3cccnn3)CC2)ccc1F [Example 314, 7,10-Ethanopyrimido[1,2-a]azepine-2-carboxamide, N-[(4-fluoro-3-methylphenyl)methyl]-4,6,7,8,9,10-hexahydro-3-hydroxy-4-oxo-10-[(3-pyridazinylcarbonyl)amino]-]
- IC50 (HIV-integrase): < 10 nM
- Ki (HIV-integrase): < 1 nM
- EC50 [1]: < 1 nM

Compound: CNC1c2nc(C(=O)NCc3ccc(F)cc3)c(O)c(=O)n2CC2CCC1C2 (stereo not shown) [Example 9, 7,10-Methano-4H-pyrimido[1,2-a]azocine-2-carboxamide, N-[(4-fluorophenyl)methyl]-6,7,8,9,10,11-hexahydro-3-hydroxy-11-(methylamino)-4-oxo-]
- IC50 (HIV-integrase): > 100 nM

Compound: CN(C)C(=O)C(=O)NC12CCC(CC1)Cn1c2nc(C(=O)NCC2CC2)c(O)c1=O [Example 352]
- IC50 (HIV-integrase): > 100 nM

Compound: CC(=O)N1CC[C@H](C(=O)NC23CCC(CC2)Cn2c3nc(C(=O)NCc3ccc(F)c(C)c3)c(O)c2=O)C1 [Example 282, 7,10-Ethanopyrimido[1,2-a]azepine-2-carboxamide, 10-[[[(3S)-1-acetyl-3-pyrrolidinyl]carbonyl]amino]-N-[(4-fluoro-3-methylphenyl)methyl]-4,6,7,8,9,10-hexahydro-3-hydroxy-4-oxo-]
- IC50 (HIV-integrase): < 10 nM

Compound: CN(C)C(=O)C(=O)NC12CCC(CC1)Cn1c2nc(C(=O)NCc2ccccc2C(F)(F)F)c(O)c1=O [Example 377]
- IC50 (HIV-integrase): 10 to 100 nM

Compound: CN(C(=O)N(C)C12CCC(CC1)Cn1c2nc(C(=O)NCc2ccc(F)cc2)c(O)c1=O)c1ccccn1 [Example 328, 7,10-Ethanopyrimido[1,2-a]azepine-2-carboxamide, N-[(4-fluorophenyl)methyl]-4,6,7,8,9,10-hexahydro-3-hydroxy-10-[methyl[(methyl-2-pyridinylamino)carbonyl]amino]-4-oxo-]
- IC50 (HIV-integrase): 10 to 100 nM

Compound: CN(CC(F)(F)F)C(=O)C(=O)NC12CCC(CC1)Cn1c2nc(C(=O)NCc2ccc(F)cc2)c(O)c1=O [Example 50, N′-(2-((4-Fluorobenzyl)carbamoyl)-3-hydroxy-4-oxo-6,7,8,9-tetrahydro-7,10-ethanopyrimido[1,2-a]azepin-10(4H)-yl)-N-methyl-N-(2,2,2-trifluoroethyl)ethanediamide]
- IC50 (HIV-integrase): < 10 nM

Compound: COCCN(C)C(=O)C(=O)NC12CCC(CC1)Cn1c2nc(C(=O)NCc2ccc(F)c(C)c2)c(O)c1=O [Example 134, N′-(2-((4-Fluoro-3-methylbenzyl)carbamoyl)-3-hydroxy-4-oxo-6,7,8,9-tetrahydro-7,10-ethanopyrimido[1,2-a]azepin-10(4H)-yl)-N-(2-methoxyethyl)-N-methylethanediamide]
- IC50 (HIV-integrase): < 10 nM

Compound: COc1cccc(CNC(=O)c2nc3n(c(=O)c2O)CC2CCC3(NC(=O)C(=O)N(C)C)CC2)c1 [Example 373]
- IC50 (HIV-integrase): < 10 nM

Compound: CC(CCc1ccccc1)NC(=O)c1nc2n(c(=O)c1O)CC1CCC2(NC(=O)C(=O)N(C)C)CC1 (stereo not shown) [Example 339]
- IC50 (HIV-integrase): 10 to 100 nM

Compound: CN(C)C(=O)COC12CCC(CC1)Cn1c2nc(C(=O)NCc2ccc(F)cc2)c(O)c1=O [Example 226, 7,10-Ethanopyrimido[1,2-a]azepine-2-carboxamide, 10-[2-(dimethylamino)-2-oxoethoxy]-N-[(4-fluorophenyl)methyl]-4,6,7,8,9,10-hexahydro-3-hydroxy-4-oxo-]
- IC50 (HIV-integrase): 10 to 100 nM

Compound: COC(=O)c1sccc1S(=O)(=O)N1CCN(C(=O)C(=O)NC23CCC(CC2)Cn2c3nc(C(=O)NCc3ccc(F)cc3)c(O)c2=O)CC1 [Example 147, Methyl 3-((4-(((2-((4-fluorobenzyl)carbamoyl)-3-hydroxy-4-oxo-6,7,8,9-tetrahydro-7,10-ethanopyrimido[1,2-a]azepin-10(4H)-yl)amino) (oxo)acetyl)-1-piperazinyl)sulfonyl)-2-thiophenecarboxylate]
- IC50 (HIV-integrase): < 10 nM

Compound: CN(C)C(=O)C(=O)NC12CCC(CC1)Cn1c2nc(C(=O)NCCCn2ccnc2)c(O)c1=O [Example 350]
- IC50 (HIV-integrase): > 100 nM

Compound: Cc1cc(CNC(=O)c2nc3n(c(=O)c2O)CC2CCC3(N(C)C(=O)C(=O)N3CC[C@@H](F)C3)CC2)ccc1F [Example 164, N-(4-Fluoro-3-methylbenzyl)-10-((((3R)-3-fluoro-1-pyrrolidinyl)(oxo)acetyl)(methyl)amino)-3-hydroxy-4-oxo-4,6,7,8,9,10-hexahydro-7,10-ethanopyrimido[1,2-a]azepine-2-carboxamide]
- IC50 (HIV-integrase): < 10 nM

Compound: CS(=O)(=O)N1CCCC[C@H]1C(=O)NC12CCC(CC1)Cn1c2nc(C(=O)NCc2ccc(F)cc2)c(O)c1=O [Example 266, 7,10-Ethanopyrimido[1,2-a]azepine-2-carboxamide, N-[(4-fluorophenyl)methyl]-4,6,7,8,9,10-hexahydro-3-hydroxy-10-[[[(2S)-1-(methylsulfonyl)-2-piperidinyl]carbonyl]amino]-4-oxo-]
- IC50 (HIV-integrase): < 10 nM

Compound: Cn1cc(C(=O)NC23CCC(CC2)Cn2c3nc(C(=O)NCc3ccc(F)cc3)c(O)c2=O)cn1 [Example 246, 7,10-Ethanopyrimido[1,2-a]azepine-2-carboxamide, N-[(4-fluorophenyl)methyl]-4,6,7,8,9,10-hexahydro-3-hydroxy-10-[[(1-methyl-1H-pyrazol-4-yl)carbonyl]amino]-4-oxo-]
- IC50 (HIV-integrase): < 10 nM

Compound: Cc1cc(CNC(=O)c2nc3n(c(=O)c2O)CC2CCC3(NC(=O)C(=O)N(C)C)CC2)nn1C(C)(C)C [Example 236, Ethanediamide, N′-[2-[[[[1-(1,1-dimethylethyl)-5-methyl-1H-pyrazol-3-yl]methyl]amino]carbonyl]-6,7,8,9-tetrahydro-3-hydroxy-4-oxo-7,10-ethanopyrimido[1,2-a]azepin-10(4H)-yl]-N,N-dimethyl-]
- IC50 (HIV-integrase): 10 to 100 nM

Compound: Cc1c(CN(C)C(=O)C(=O)NC23CCC(CC2)Cn2c3nc(C(=O)NCc3ccc(F)cc3)c(O)c2=O)cnn1C [Example 95, N-((1,5-Dimethyl-1H-pyrazol-4-yl)methyl)-N′-(2-((4-fluorobenzyl)carbamoyl)-3-hydroxy-4-oxo-6,7,8,9-tetrahydro-7,10-ethanopyrimido[1,2-a]azepin-10(4H)-yl)-N-methylethanediamide]
- IC50 (HIV-integrase): < 10 nM

Compound: Cc1cc(CNC(=O)c2nc3n(c(=O)c2O)CC2CCC3(NC(=O)C(C)(C)n3cccn3)CC2)ccc1F [Example 281, 7,10-Ethanopyrimido[1,2-a]azepine-2-carboxamide, N-[(4-fluoro-3-methylphenyl)methyl]-4,6,7,8,9,10-hexahydro-3-hydroxy-10-[[2-methyl-1-oxo-2-(1H-pyrazol-1-yl)propyl]amino]-4-oxo-]
- IC50 (HIV-integrase): < 10 nM

Compound: CN(C)C(=O)C(=O)NC12CCC(CC1)Cn1c2nc(C(=O)NCc2cccc(Cl)c2)c(O)c1=O [Example 380]
- IC50 (HIV-integrase): < 10 nM
